The values below come from BindingDB's records for doi:10.1021/cb5001586 (The Broad Institute , Cambridge, Massachusetts 02142, …, 2014).

The assay deals with Acyl-homoserine lactone acylase PvdQ [A190E,F674L] (Pseudomonas aeruginosa, UniProt Q9I194, A190E/F674L). Description: PvdQ IC50 Assay. The procedure: The assay was performed with nine compound concentrations that ranged from 3 nM to 19.5 µM with PvdQ concentration of 20 nM. The positive control, isopropyl dodecylfluorophosphonate (IDFP), was added in 24 selective wells to a final concentration of 200 µM. The assay plates were initially read at time = 0 and then incubated for 60 min at RT. The plates were read again at time = 60 min.
Sequence of Acyl-homoserine lactone acylase PvdQ [A190E,F674L] (Q9I194 whole entry, looked up, stated change not applied): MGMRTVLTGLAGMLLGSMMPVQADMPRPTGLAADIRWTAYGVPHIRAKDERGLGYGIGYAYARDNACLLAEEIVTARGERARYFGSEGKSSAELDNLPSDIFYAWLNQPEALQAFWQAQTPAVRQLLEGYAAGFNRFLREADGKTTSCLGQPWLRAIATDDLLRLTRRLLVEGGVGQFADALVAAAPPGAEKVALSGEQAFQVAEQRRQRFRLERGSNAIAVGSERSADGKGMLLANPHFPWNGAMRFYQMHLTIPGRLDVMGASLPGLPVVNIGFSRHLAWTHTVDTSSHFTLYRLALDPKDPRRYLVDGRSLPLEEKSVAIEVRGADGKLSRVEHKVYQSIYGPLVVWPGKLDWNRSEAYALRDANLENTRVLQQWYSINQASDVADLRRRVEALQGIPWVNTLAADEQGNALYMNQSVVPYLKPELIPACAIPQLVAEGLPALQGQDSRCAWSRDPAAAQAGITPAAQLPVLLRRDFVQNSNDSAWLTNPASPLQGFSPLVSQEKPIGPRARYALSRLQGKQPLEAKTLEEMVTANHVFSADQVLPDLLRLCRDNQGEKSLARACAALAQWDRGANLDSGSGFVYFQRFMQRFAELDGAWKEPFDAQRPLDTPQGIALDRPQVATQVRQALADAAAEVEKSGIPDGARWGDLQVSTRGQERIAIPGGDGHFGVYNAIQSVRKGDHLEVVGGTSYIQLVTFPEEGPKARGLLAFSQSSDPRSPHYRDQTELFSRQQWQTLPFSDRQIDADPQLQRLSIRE
`N#CC(c1ccc(Cl)cc1Cl)c1ncccc1Cl` (stereo not given) [2-(3-Chloropyridin-2-yl)-2-(2,4-dichlorophenyl) acetonitrile (35)] returned an IC50 of 210 nM.

In the case of `N#CC(c1ccc(C(F)(F)F)cc1)c1cccc(C(F)(F)F)n1` (stereo not given) [2-(4-(Trifluoromethyl)phenyl)-2-(6-(trifluoromethyl)pyridin-2-yl)acetonitrile (29)], the midpoint of inhibition, the IC50, lay at 140 nM.

Regarding `CCCCC(C#N)c1ccc(C(F)(F)F)cc1` (stereo not given) [2-(4-(Trifluoromethyl)phenyl)hexanenitrile (48)], the IC50 was above 10000 nM.

`N#CC(c1ccc(C(F)(F)F)cn1)c1ccc(Cl)cc1F` (stereo not given) [2-(4-Chloro-2-fluorophenyl)-2-(5-(trifluoromethyl)-pyridin-2-yl)acetonitrile (31)] displayed an IC50 of 10 nM.

Regarding `N#CC(c1ccc(C(F)(F)F)c(Cl)n1)c1ccc(Cl)cc1F` (stereo not given) [2-(4-Chloro-2-fluorophenyl)-2-(6-chloro-5-(trifluoro-methyl)pyridin-2-yl)acetonitrile (32)], the IC50 amounted to 630 nM.

`N#CC(c1cccc(Cl)n1)c1ccc(Cl)cc1F` (stereo not given) [2-(4-Chloro-2-fluorophenyl)-2-(6-chloropyridin-2-yl) acetonitrile (13)] registered an IC50 of 60 nM.

In turn, `N#CC(c1ccc(Cl)cc1)c1ncccc1Cl` (stereo not given) [2-(4-Chlorophenyl)-2-(3-chloropyridin-2-yl) acetonitrile (15)] had an IC50 of 10 nM.

As for `N#CC(c1ccc(Cl)cc1)c1ccc(C(F)(F)F)cn1` (stereo not given) [2-(4-Chlorophenyl)-2-(5-(trifluoromethyl)pyridin-2-yl)acetonitrile (20)], half-maximal inhibition (IC50) was put at 2400 nM.

Compound `CC(C#N)(c1ccc(Cl)cc1)c1ccc(C(F)(F)F)cn1` (stereo not given) [2-(4-Chlorophenyl)-2-(5-(trifluoromethyl)pyridin-2-yl)propanenitrile (54)] gave an IC50 of 1100 nM.

In turn, `N#CC(c1ccc(Cl)cc1)c1ccc(Cl)cn1` (stereo not given) [2-(4-Chlorophenyl)-2-(5-chloropyridin-2-yl) acetonitrile (14)] yielded an IC50 of 130 nM.

The compound `N#CC(c1ccc(Cl)cc1)c1cccc(C(F)(F)F)n1` (stereo not given) [2-(4-Chlorophenyl)-2-(6-(trifluoromethyl)pyridin-2-yl)acetonitrile (16)] returned an IC50 of 10 nM.

Consider `N#CC(c1ccc(Cl)cc1)c1ccccn1` (stereo not given) [2-(4-Chlorophenyl)-2-(pyridin-2-yl)acetonitrile (24)], for which the IC50 was 270 nM.

Regarding `N#CC(CC1CC1)c1ccc(Cl)cc1` (stereo not given) [2-(4-Chlorophenyl)-3-cyclopropylpropanenitrile (40)], the IC50 came to 540 nM.

Compound `COCCOCCC(C#N)c1ccc(Cl)cc1` (stereo not given) [2-(4-Chlorophenyl)-4-(2-methoxyethoxy)butanenitrile (42)] registered an IC50 of 4700 nM.

For `COCCC(C#N)c1ccc(Cl)cc1` (stereo not given) [2-(4-Chlorophenyl)-4-methoxybutanenitrile (41)], the IC50 is 4800 nM.

Compound `CC(C)CC(C#N)c1ccc(Cl)cc1` (stereo not given) [2-(4-Chlorophenyl)-4-methylpentanenitrile (39)] gave a half-inhibitory concentration (IC50) of 290 nM.

In turn, `CCCCC(C#N)c1ccc(Cl)cc1` (stereo not given) [2-(4-Chlorophenyl)hexanenitrile (38)] had an IC50 of 1400 nM.

For `CCCC(C#N)c1ccc(Cl)cc1` (stereo not given) [2-(4-Chlorophenyl)pentanenitrile (37)], the IC50 is 5900 nM.

Compound `N#CC(c1ccc(F)cc1)c1cccc(C(F)(F)F)n1` (stereo not given) [2-(4-Fluorophenyl)-2-(6-(trifluoromethyl)pyridin-2-yl) acetonitrile (4)] came in with an IC50 of 20 nM.

`COCCC(C#N)c1ccc(F)cc1` (stereo not given) [2-(4-Fluorophenyl)-4-methoxybutanenitrile (47)] gave a concentration for half-maximal inhibition (IC50) of 290 nM.

`CCCCC(C#N)c1ccc(F)cc1` (stereo not given) [2-(4-Fluorophenyl)hexanenitrile (46)] had a half-maximal inhibitory concentration (IC50) of 320 nM.

For `CCCCC(C#N)c1ccc(Cl)cn1` (stereo not given) [2-(5-Chloropyridin-2-yl)hexanenitrile (49)], the IC50 came to 3800 nM.

For the compound `N#CC(c1ccc(C(F)(F)F)c(Cl)n1)c1ccc(Cl)cc1Cl` (stereo not given) [2-(6-Chloro-5-(trifluoromethyl)pyridin-2-yl)-2-(2,4-dichlorophenyl)acetonitrile (36)], the IC50 turned out to be 970 nM.

`N#CC(c1ccc(C(F)(F)F)cc1)c1ccc(C(F)(F)F)c(Cl)n1` (stereo not given) [2-(6-Chloro-5-(trifluoromethyl)pyridin-2-yl)-2-(4-(trifluoromethyl)phenyl)acetonitrile (28)] came in with an IC50 of 2300 nM.

For the compound `N#CC(c1ccc(Cl)cc1)c1ccc(C(F)(F)F)c(Cl)n1` (stereo not given) [2-(6-Chloro-5-(trifluoromethyl)pyridin-2-yl)-2-(4-chlorophenyl)acetonitrile (21)], the IC50 came out at 620 nM.

`N#CC(c1ccc(F)cc1)c1ccc(C(F)(F)F)c(Cl)n1` (stereo not given) [2-(6-Chloro-5-(trifluoromethyl)pyridin-2-yl)-2-(4-fluorophenyl)acetonitrile (27)] returned an IC50 of 740 nM.

For `N#CC(c1cccc(Cl)n1)c1ccc(Cl)cc1Cl` (stereo not given) [2-(6-Chloropyridin-2-yl)-2-(2,4-dichlorophenyl) acetonitrile (12)], the IC50 was 250 nM.

For the compound `N#CC(c1cccc(Cl)n1)c1ccccc1OC(F)(F)F` (stereo not given) [2-(6-Chloropyridin-2-yl)-2-(2-(trifluoromethoxy)-phenyl)acetonitrile (11)], the IC50 was 1700 nM.

In turn, `N#CC(c1ccc(C(F)(F)F)cc1)c1cccc(Cl)n1` (stereo not given) [2-(6-Chloropyridin-2-yl)-2-(4-(trifluoromethyl)phenyl)acetonitrile (10)] came in with an IC50 of 390 nM.

Compound `CCCCC(C#N)c1ccccn1` (stereo not given) [2-(Pyridin-2-yl)hexanenitrile (51)] yielded an IC50 of 8400 nM.

In turn, `Clc1ccc(C(c2cccc(Cl)n2)c2nnn[nH]2)cc1` (stereo not given) [2-Chloro-6-((4-chlorophenyl)(1H-tetrazol-5-yl)-methyl)pyridine (52)] showed an IC50 of 3400 nM.

For `CCCCC(c1ccc(Cl)cc1)c1nnn[nH]1` (stereo not given) [5-(1-(4-Chlorophenyl)pentyl)-1H-tetrazole (53)], the IC50 stood at 6700 nM.

In turn, `N#Cc1cccc(C(C#N)c2ccc(Cl)cc2F)n1` (stereo not given) [6-((4-Chloro-2-fluorophenyl)(cyano)methyl) picolinonitrile (30)] registered a half-inhibitory concentration (IC50) of 110 nM.

For `Cc1ccc(C(C#N)c2ccc(Cl)cc2)nc1C#N` (stereo not given) [6-((4-Chlorophenyl)(cyano)methyl)-3-methyl picolinonitrile (22)], the IC50 amounted to 180 nM.

The compound `N#Cc1ccc(C(C#N)c2ccc(Cl)cc2)nc1` (stereo not given) [6-((4-Chlorophenyl)(cyano)methyl)nicotinonitrile (23)] had an IC50 of 2500 nM.

Regarding `N#Cc1cccc(C(C#N)c2ccc(Cl)cc2)n1` (stereo not given) [6-((4-Chlorophenyl)(cyano)methyl)picolinonitrile (17)], half-maximal inhibition (IC50) required 180 nM.

Take `N#Cc1ccc(C(C#N)c2ccc(Cl)cc2Cl)nc1` (stereo not given) [6-(Cyano(2,4-dichlorophenyl)methyl)nicotinonitrile (34)]: it took 1800 nM to reach half-maximal inhibition (IC50).

`N#Cc1cccc(C(C#N)c2ccc(Cl)cc2Cl)n1` (stereo not given) [6-(Cyano(2,4-dichlorophenyl)methyl)picolinonitrile (33)] registered an IC50 of 290 nM.

Take `N#Cc1cccc(C(C#N)c2ccc(F)cc2)n1` (stereo not given) [6-(Cyano(4-fluorophenyl)methyl)picolinonitrile (25)]: the IC50 is 130 nM.

`N#CC1c2ccc(Cl)cc2CCc2cccnc21` (stereo not given) [8-Chloro-6,11-dihydro-5H-benzo[5,6]cyclohepta[1,2-b]pyridine-11-carbonitrile (55)]: the IC50 was determined as 9100 nM.
